Measured values as given in paper PMC12136037, “Type II kinase inhibitors that target Parkinson’s disease–associated LRRK2” (Science Advances, 2025).

Legend:
Test in all cases: DSF 100 kinase selectivity screen;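 as to dTm: compound tested at 20 µM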
Format in all cases: binding
[1] = target: T1, ~100 representative kinases (Homo sapiens, UniProt O14733); conditions: protein MAP2K7; average of three replicates
T1 construct: Recombinant protein kinase domains with a concentration of 2 μM
T1 sequence (O14733 1-419): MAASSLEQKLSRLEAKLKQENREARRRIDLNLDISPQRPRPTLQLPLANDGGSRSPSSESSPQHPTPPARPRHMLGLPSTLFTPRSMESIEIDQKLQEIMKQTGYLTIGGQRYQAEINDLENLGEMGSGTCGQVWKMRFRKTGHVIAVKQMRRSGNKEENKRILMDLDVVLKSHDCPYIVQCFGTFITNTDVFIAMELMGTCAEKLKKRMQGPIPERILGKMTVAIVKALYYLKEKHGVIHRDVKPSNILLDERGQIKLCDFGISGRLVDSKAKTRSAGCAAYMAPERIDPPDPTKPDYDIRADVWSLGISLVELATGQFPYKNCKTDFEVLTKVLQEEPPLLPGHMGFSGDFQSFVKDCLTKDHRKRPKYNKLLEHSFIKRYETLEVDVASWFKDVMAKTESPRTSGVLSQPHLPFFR
Description: (§1) Recombinant protein kinase domains with a concentration of 2 μM were mixed with a 20 μM compound solution in dimethyl sulfoxide (DMSO), 20 mM Hepes (pH 7.5), and 500 mM NaCl. SYPRO Orange (5000×, Invitrogen) was added as a fluorescence probe (1μl/ml). Subsequently, temperature-dependent protein unfolding profiles were measured using the QuantStudio 5 realtime PCR machine (Thermo Fisher Scientific, Waltham, MA, USA). […] The temperature was raised with a step rate of 3°C/min. […] Differences in melting temperature are given as ΔTm values in degrees Celsius. […]

[2] = target: T2, ~100 representative kinases (Homo sapiens, UniProt O15075); conditions: Protein DCAMKL1; average of three replicates
T2 construct: Recombinant protein kinase domains with a concentration of 2 μM
T2 sequence (O15075 whole entry, the tested form may be a part): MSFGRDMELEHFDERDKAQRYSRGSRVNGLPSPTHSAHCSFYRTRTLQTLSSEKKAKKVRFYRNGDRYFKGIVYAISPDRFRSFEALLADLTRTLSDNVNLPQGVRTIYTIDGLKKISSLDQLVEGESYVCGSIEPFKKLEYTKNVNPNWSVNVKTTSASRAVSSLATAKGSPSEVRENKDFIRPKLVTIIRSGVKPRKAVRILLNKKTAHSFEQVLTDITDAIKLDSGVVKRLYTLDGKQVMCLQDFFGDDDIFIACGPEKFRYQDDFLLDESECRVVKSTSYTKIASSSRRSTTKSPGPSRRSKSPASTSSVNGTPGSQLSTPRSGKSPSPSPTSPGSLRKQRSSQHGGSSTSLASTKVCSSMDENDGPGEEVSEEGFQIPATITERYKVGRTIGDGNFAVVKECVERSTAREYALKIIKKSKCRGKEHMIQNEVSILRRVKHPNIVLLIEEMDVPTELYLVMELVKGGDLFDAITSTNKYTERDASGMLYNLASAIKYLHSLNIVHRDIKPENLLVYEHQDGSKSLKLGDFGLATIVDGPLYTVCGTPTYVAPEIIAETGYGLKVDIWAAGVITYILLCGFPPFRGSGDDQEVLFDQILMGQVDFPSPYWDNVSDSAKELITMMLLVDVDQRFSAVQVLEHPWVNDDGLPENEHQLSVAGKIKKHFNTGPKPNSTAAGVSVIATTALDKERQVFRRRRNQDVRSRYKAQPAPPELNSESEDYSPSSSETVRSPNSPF
Description: as §1

[3] = target: T3, ~100 representative kinases (Homo sapiens, UniProt O15264); conditions: protein MAPK13; average of three replicates
T3 construct: Recombinant protein kinase domains with a concentration of 2 μM
T3 sequence (O15264 1-365): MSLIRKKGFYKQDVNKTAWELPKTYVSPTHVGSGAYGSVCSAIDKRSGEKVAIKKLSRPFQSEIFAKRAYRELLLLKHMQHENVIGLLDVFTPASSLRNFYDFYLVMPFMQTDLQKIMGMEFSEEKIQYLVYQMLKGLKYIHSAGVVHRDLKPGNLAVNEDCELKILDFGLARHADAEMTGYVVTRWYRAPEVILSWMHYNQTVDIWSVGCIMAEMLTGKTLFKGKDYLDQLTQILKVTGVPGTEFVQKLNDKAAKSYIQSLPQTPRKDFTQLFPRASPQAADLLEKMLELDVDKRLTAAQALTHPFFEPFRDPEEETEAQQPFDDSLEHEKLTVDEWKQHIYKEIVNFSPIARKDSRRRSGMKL
Description: as §1

[4] = target: T4, ~100 representative kinases (Homo sapiens, UniProt O43293); conditions: Protein DAPK3; average of three replicates
T4 construct: Recombinant protein kinase domains with a concentration of 2 μM
T4 sequence (O43293 whole entry, the tested form may be a part): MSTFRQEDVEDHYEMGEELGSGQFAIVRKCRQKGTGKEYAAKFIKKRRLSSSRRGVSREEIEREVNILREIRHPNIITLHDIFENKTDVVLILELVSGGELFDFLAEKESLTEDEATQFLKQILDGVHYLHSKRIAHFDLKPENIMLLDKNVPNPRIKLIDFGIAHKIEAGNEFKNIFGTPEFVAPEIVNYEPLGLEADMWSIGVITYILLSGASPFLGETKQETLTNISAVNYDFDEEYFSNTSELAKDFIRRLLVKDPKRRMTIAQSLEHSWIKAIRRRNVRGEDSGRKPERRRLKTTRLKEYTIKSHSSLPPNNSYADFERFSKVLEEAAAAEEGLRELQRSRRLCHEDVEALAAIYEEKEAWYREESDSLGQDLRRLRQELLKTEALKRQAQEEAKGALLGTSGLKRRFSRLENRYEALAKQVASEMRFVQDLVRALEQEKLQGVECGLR
Description: as §1

[5] = target: T5, ~100 representative kinases (Homo sapiens, UniProt P07332); conditions: protein FESA; average of three replicates
T5 construct: Recombinant protein kinase domains with a concentration of 2 μM
T5 sequence (P07332 whole entry, the tested form may be a part): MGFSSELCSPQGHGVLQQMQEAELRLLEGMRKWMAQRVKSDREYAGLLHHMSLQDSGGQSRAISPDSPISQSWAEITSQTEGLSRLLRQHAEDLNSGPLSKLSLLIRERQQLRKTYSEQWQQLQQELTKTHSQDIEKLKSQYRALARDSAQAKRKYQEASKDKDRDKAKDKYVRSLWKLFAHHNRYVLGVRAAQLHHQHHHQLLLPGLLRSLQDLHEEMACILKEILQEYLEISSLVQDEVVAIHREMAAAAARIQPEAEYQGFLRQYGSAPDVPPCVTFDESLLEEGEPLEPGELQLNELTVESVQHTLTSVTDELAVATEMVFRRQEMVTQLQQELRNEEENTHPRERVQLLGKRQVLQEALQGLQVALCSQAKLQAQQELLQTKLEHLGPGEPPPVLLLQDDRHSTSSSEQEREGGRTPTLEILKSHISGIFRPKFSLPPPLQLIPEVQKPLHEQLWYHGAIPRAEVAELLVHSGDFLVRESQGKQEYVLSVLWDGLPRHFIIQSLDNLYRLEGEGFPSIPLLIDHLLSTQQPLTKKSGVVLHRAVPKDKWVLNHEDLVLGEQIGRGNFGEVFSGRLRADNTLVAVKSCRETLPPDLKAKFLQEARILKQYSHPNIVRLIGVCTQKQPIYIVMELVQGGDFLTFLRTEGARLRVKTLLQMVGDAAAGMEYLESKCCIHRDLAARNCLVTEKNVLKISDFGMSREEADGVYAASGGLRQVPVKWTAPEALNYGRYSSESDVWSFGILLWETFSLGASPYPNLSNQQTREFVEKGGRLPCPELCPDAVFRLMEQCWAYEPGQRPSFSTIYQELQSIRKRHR
Description: as §1

[6] = target: T6, ~100 representative kinases (Homo sapiens, UniProt P45984); conditions: protein MAPK9; average of three replicates
T6 construct: Recombinant protein kinase domains with a concentration of 2 μM
T6 sequence (P45984 whole entry, the tested form may be a part): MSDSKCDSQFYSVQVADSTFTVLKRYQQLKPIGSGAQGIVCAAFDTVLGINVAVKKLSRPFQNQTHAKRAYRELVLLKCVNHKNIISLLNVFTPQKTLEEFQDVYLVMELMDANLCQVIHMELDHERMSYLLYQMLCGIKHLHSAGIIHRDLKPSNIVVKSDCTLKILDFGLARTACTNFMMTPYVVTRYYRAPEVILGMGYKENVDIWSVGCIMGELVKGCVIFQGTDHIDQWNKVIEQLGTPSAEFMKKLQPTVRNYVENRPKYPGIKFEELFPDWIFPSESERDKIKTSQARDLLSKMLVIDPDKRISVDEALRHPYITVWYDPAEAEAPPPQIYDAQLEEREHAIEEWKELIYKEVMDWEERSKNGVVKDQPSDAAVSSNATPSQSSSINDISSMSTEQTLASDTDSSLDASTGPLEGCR
Description: as §1

[7] = target: T7, ~100 representative kinases (Homo sapiens, UniProt P45985); conditions: protein MAP2K4; average of three replicates
T7 construct: Recombinant protein kinase domains with a concentration of 2 μM
T7 sequence (P45985 1-399): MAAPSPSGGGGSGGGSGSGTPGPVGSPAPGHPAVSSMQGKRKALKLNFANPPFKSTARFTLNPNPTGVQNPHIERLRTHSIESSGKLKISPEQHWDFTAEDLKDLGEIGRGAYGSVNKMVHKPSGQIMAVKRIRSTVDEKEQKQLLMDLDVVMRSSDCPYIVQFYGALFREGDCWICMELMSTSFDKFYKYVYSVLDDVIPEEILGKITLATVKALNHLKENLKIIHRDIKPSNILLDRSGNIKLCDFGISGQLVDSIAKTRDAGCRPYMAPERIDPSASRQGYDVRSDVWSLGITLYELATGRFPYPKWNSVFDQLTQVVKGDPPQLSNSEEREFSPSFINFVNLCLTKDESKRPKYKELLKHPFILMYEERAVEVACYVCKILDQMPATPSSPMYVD
Description: as §1

[8] = target: T8, ~100 representative kinases (Homo sapiens, UniProt Q8TF76); conditions: protein GSG2; average of three replicates
T8 construct: Recombinant protein kinase domains with a concentration of 2 μM
T8 sequence (Q8TF76 1-798): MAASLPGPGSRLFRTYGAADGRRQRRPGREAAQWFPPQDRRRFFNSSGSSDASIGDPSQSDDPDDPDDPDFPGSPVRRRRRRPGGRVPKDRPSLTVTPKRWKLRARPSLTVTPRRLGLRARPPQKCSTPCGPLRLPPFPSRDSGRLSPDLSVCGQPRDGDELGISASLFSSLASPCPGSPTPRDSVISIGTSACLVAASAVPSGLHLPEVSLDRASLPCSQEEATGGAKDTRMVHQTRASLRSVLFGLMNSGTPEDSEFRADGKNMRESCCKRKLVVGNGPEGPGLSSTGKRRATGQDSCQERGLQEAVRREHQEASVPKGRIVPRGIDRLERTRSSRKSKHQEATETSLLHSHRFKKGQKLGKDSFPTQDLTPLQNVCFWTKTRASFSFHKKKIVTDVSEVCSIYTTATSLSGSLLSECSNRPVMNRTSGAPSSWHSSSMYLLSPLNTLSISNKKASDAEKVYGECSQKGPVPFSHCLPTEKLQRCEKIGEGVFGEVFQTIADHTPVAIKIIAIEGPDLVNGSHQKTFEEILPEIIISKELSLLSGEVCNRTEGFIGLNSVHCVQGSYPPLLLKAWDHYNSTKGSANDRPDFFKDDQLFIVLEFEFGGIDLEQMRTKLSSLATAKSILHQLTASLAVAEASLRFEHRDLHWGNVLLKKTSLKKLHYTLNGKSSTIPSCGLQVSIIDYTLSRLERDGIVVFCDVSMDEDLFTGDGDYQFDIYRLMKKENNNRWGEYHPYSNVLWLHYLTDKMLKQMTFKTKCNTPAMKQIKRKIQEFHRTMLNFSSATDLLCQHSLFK
Description: as §1

[9] = target: T9, ~100 representative kinases (Homo sapiens, UniProt Q9H2X6); conditions: protein HIPK2; average of three replicates
T9 construct: Recombinant protein kinase domains with a concentration of 2 μM
T9 sequence (Q9H2X6 whole entry, the tested form may be a part): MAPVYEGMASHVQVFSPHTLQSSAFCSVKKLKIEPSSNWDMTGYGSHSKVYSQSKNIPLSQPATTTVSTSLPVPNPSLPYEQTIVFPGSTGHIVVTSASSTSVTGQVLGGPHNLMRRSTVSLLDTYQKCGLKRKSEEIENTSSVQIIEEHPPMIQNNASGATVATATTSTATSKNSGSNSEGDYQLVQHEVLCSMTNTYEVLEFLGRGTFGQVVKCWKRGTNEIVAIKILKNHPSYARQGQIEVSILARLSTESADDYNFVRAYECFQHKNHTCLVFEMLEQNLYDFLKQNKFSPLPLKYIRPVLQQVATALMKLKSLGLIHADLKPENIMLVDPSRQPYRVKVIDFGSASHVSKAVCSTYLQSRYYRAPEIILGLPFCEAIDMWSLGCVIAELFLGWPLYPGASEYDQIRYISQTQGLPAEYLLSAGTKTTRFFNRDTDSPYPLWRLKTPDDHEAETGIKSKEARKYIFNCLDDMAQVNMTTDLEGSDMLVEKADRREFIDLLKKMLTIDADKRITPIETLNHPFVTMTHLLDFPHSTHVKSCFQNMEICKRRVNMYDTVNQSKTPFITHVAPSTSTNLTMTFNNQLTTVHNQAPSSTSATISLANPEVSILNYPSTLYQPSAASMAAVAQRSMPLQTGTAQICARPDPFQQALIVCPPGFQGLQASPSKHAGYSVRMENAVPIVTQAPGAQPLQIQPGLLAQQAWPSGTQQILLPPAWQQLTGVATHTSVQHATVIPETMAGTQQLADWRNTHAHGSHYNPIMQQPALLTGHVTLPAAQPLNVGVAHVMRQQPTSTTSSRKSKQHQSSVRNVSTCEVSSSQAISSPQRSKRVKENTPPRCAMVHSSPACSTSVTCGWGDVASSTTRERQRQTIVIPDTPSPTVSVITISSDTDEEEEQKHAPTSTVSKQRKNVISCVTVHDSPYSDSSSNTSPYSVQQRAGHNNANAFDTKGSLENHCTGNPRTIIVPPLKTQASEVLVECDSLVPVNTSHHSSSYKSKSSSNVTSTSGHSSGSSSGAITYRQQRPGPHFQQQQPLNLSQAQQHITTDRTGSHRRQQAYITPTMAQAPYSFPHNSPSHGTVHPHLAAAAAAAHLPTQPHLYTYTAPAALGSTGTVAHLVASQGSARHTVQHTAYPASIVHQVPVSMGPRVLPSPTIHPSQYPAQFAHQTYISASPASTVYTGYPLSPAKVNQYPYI
Description: as §1

[10] = target: T10, ~100 representative kinases (Homo sapiens, UniProt Q9NSY1); conditions: Protein BMP2K; average of three replicates
T10 construct: Recombinant protein kinase domains with a concentration of 2 μM
T10 sequence (Q9NSY1 whole entry, the tested form may be a part): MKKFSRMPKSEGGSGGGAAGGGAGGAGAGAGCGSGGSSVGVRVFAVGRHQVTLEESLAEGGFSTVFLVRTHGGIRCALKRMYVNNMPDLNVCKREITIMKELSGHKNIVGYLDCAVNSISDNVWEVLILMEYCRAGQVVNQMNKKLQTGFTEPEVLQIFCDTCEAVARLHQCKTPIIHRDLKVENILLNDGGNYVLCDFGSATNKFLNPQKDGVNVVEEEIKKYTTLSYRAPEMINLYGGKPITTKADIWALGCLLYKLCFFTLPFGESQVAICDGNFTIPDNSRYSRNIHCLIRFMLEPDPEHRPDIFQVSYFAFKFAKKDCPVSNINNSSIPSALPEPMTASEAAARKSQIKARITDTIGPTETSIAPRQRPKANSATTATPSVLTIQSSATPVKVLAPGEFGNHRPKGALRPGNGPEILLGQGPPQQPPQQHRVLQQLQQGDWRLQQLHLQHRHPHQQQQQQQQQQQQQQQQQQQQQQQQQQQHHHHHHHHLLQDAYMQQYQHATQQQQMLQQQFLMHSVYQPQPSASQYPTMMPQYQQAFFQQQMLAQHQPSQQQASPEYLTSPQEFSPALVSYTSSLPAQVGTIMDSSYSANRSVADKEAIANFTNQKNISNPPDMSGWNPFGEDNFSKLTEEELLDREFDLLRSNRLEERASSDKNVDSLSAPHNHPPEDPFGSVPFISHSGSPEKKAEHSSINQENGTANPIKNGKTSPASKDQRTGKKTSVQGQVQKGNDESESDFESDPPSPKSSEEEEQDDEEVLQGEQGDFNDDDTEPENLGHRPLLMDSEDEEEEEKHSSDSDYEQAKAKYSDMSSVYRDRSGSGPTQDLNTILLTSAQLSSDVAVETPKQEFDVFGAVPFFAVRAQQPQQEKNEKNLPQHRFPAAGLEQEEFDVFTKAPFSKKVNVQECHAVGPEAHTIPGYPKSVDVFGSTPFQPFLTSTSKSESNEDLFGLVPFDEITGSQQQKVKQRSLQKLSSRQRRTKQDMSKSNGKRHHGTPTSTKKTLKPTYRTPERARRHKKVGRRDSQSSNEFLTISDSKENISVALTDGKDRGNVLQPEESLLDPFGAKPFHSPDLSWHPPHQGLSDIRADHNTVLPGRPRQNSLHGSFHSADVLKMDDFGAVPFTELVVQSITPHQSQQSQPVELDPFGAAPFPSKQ
Description: as §1

[11] = test system: ~100 representative kinases; conditions: for dTm: Protein BRD, average of three replicates; for # >5K: number of proteins of the DSF panel with dTm >5K
Description: as §1

[12] = selectivity score: # >5K divided by # of proteins tested in the DSF panel
[13] = number of kinases with thermal shift >5 K divided by total number of kinases screened

Row | SMILES | dTm [1] | dTm [2] | dTm [3] | dTm [4] | dTm [5] | dTm [6] | dTm [7] | dTm [8] | dTm [9] | dTm [10] | dTm [11] | # >5K [11] | S(5K) [11, 12] | S(5K) [11, 13] | number of kinases stabilized (>5 K) ([11]; Rebastinib 96 kinases screened, RN341 103 kinases screened)
1 | CCSc1nc(NC)c2c(-c3cccc(NC(=O)Nc4cc(C(C)(C)C)nn4-c4ccc(C)cc4)c3)c[nH]c2n1 [Compound 32] | 0.27 K | 0.67 K | 9.18 K | 1.05 K | 3.81 K | 11.55 K | 0.66 K | 0.63 K | 0.31 K | 0.75 K | -0.35 K | 10 | 0.097 | 0.10 | 10
2 | O=C(Nc1ccc(F)cc1)C1(C(=O)Nc2cccc(-c3c[nH]c4ncnc(N5CCOCC5)c34)c2)CC1 [Compound 2] | 4.21 K | 1.25 K | 9.94 K | 7.00 K | 7.20 K | 2.87 K | 4.96 K | -0.43 K | 9.65 K | 6.37 K | -1.00 K | 28 | 0.280 | 0.28 | 
3 | O=C(Nc1cccc(-c2c[nH]c3ncnc(N4CCOCC4)c23)c1)c1cccn(-c2ccc(F)cc2)c1=O [Compound 4] | 5.76 K | 0.57 K | 12.71 K | 5.01 K | 6.45 K | 5.57 K | 6.40 K | -1.23 K | 8.43 K | 3.26 K | -1.99 K | 33 | 0.330 | 0.33 | 
4 | CCc1ccc(NC(=O)C2(C(=O)Nc3cccc(-c4c[nH]c5ncnc(N6CCOCC6)c45)c3)CC2)cc1 [Compound 15] | 3.12 K | 0.05 K | 8.81 K | 3.77 K | 4.64 K | 4.14 K | 6.81 K | -1.97 K | 8.10 K | 4.66 K | -2.47 K | 23 | 0.230 | 0.23 | 

The next lines start with results.

Row | dTm [1] | dTm [2] | dTm [3] | dTm [4] | dTm [5] | dTm [6] | dTm [7] | dTm [8] | dTm [9] | dTm [10] | dTm [11] | # >5K [11] | S(5K) [11, 12] | S(5K) [11, 13] | SMILES | number of kinases stabilized (>5 K) ([11]; Rebastinib 96 kinases screened, RN341 103 kinases screened)
5 | -0.22 K | 2.14 K | 0.51 K | 1.72 K | 2.48 K | 0.58 K | 1.26 K | -0.09 K | 0.82 K | 8.11 K | -0.21 K | 3 | 0.029 |  | CCNc1nc(Nc2cc(F)c(C(=O)N3CCOCC3)cc2OC)ncc1C(F)(F)F [GNE-7915] | 
6 | 3.14 K | -1.61 K | 6.95 K | 2.09 K | 4.33 K | 2.21 K | 5.80 K | -2.81 K | 4.12 K | 6.47 K | -0.87 K | 12 | 0.120 | 0.12 | Cc1cc(F)ccc1NC(=O)C1(C(=O)Nc2cccc(-c3c[nH]c4ncnc(N5CCOCC5)c34)c2)CC1 [Compound 24] | 
7 | 4.61 K | 1.25 K | 11.57 K | 7.62 K | 6.34 K | 3.60 K | 6.42 K | -2.20 K | 9.11 K | 6.71 K | -1.43 K | 28 | 0.280 | 0.28 | COc1cc(NC(=O)C2(C(=O)Nc3cccc(-c4c[nH]c5ncnc(N6CCOCC6)c45)c3)CC2)ccc1F [Compound 21] | 
8 | 3.77 K | 3.75 K | 6.63 K | 3.52 K | 7.02 K | 1.21 K | 5.69 K | -2.85 K | 3.44 K | 4.67 K | 1.52 K | 23 | 0.221 | 0.22 | CC(C)(C)c1cccc(NC(=O)C2(C(=O)Nc3cccc(-c4c[nH]c5ncnc(N6CCOCC6)c45)c3)CC2)c1 [Compound 22] | 
9 | 4.70 K | 2.98 K | 18.71 K | 0.00 K | 0.00 K | -1.39 K | 5.30 K | -2.91 K | 9.24 K | 7.54 K | -2.22 K | 36 | 0.356 | 0.36 | Cc1ccc(-n2nc(C(C)(C)C)cc2NC(=O)Nc2cccc(-c3c[nH]c4ncnc(N5CCOCC5)c34)c2)cc1 [Compound 29] | 
10 | 3.02 K | 3.61 K | 1.39 K | 3.02 K | 3.29 K | 4.88 K | 5.47 K | -3.43 K | 1.71 K | 6.63 K | 1.03 K | 10 | 0.096 | 0.10 | O=C(Nc1cccc(-c2c[nH]c3ncnc(N4CCOCC4)c23)c1)C1(C(=O)Nc2cc(Br)c(F)cc2F)CC1 [Compound 25] | 
